Source: US20030124616A1, “Homocysteinylated transthyretin” (priority 2001, published 2003)

Columns and labels:
[1] = system: human plasma fibronectin; experiment: Binding of 35S-L-homocysteine and 35S-L-cysteine to fibronectin (SDS-PAGE, phosphorimaging); conditions: 500 μmol/L, 5 hours at 37° C.
Description: (§1) ^35S-L-homocysteine (500 μmol/L final concentration) was added to either human plasma fibronectin (1 mg/mL, 0.05 mol/L TES buffer, pH 7.4) or human plasma diluted 1:1 with 0.05 mol/L TES buffer, pH 7.4 and incubated under aerobic conditions for 5 hours at 37° C. with continuous shaking. Separate samples of human plasma and fibronectin were incubated with ^35S-L-cysteine (1,000 Ci/mmol) (New England Nuclear, Boston, Mass.) which was first diluted with cold L-cysteine (in 1 mol/L TES buffer, pH 7.4) to obtain a specific activity equal to that of the synthesized ^35S-L-homocysteine. The final concentrations of L-cysteine and TES in the reaction mixture was 500 μmol/L and 0.05 mol/L respectively and the incubation was carried out as described above for L-homocysteine. The bound radioactive homocysteine was detected by SDS-PAGE of the samples followed by phosphorimage analysis (Molecular Dynamics Inc., Sunnyvale, Calif.).
(§2) Samples were combined with SDS-PAGE sample buffer (62.5 mmol/L Tris-HCl, pH 6.8, 2% SDS, 10% glycerol, 0.02% bromophenol blue) and aliquots of some samples were reduced with 2-mercaptoethanol and heated to 100° C. for 5 minutes. The samples were loaded onto 4-20% precast gradient gels (Z Axis, Hudson, Ohio) and electrophoresed using the method of Laemmli. […]

[2] = target: T1, albumin (Homo sapiens, UniProt P02768); experiment: Binding of 35S-L-homocysteine and 35S-L-cysteine to plasma proteins (SDS-PAGE, phosphorimaging); conditions: 500 μmol/L, plasma diluted 1:1 with TES buffer
T1 construct: from tissue; host or cells: human plasma
Description: as §1, §2

[3] = target: T2, human transthyretin (TTR) (Homo sapiens, UniProt P02766); experiment: Radiolabeling and SDS-PAGE of human plasma and purified transthyretin with 35S-L-homocysteine; assay type: binding; conditions: 0.5 mM, 5 h, label lost with β-mercaptoethanol
T2 construct: Plasma TTR is a 127 amino acid protein containing a single cysteine residue at position 10; purchased Sigma
Description: ^35S-L-Homocysteine was incubated with 50% human plasma in 0.05 M TES buffer (pH 7.4), or with purified human transthyretin (1 mg/ml in water) for 5 h at 37 C. Protein was then precipitated with 1.5 M perchloric acid and washed three times with 1.5 M perchloric acid. The final pellet was solubilized in SDS-PAGE sample buffer with and without reduction by β-mercaptoethanol. After treatment at 100 C. for 10 min, aliquots were subjected to analysis by SDS-PAGE using a 10% gel. The gel was stained with Coomassie blue, dried and subjected to phosphorimaging to detect ^35S- labeled proteins.
In FIG. 1, ^35S-L-Homocysteine (0.5 mM) was incubated with 50% human plasma in 0.05M TES buffer (pH 7.4) and with commercially available human transthyretin from Sigma (1 mg/mL in water) for 5 hours at […]. Following the incubation, protein was precipitated with 1.5M perchloric acid and solubilized with SDS-PAGE sample buffer. Aliquots were subjected to analysis by SDS-PAGE using a 10% gel without (see lanes 1 and 2 in FIG. 1) and with reduction by β-mercaptoethanol followed by heating at 100° C. for 10 minutes (see lanes 3 and 4 in FIG. 1). The gel was strained with Coomassie blue, dried and subjected to phosphorimaging to detect ^35S-labeled proteins. […]

[4] = system: human plasma fibronectin; experiment: Stoichiometry of 35S-L-homocysteine binding to fibronectin (scintillation counting)
Description: The human plasma fibronectin purified by affinity chromatography described above was used in these studies. Purity was assessed by SDS-PAGE as described below. Purified fibronectin (200 μg/mL) was incubated with various concentrations (up to 500 μmol/L) of ^35S-L-homocysteine for up to 10 hours at 37° C. Unbound homocysteine was removed by precipitating the fibronectin with 5% trichloroacetic acid containing 0.5% tannic acid using transferrin as a carrier protein. The precipitated fibronectin was washed 3 times with the trichloroacetic acid/tannic acid, resuspended in 0.1 N NaOH and an aliquot subjected to scintillation counting.

T1 sequence (P02768 25-609): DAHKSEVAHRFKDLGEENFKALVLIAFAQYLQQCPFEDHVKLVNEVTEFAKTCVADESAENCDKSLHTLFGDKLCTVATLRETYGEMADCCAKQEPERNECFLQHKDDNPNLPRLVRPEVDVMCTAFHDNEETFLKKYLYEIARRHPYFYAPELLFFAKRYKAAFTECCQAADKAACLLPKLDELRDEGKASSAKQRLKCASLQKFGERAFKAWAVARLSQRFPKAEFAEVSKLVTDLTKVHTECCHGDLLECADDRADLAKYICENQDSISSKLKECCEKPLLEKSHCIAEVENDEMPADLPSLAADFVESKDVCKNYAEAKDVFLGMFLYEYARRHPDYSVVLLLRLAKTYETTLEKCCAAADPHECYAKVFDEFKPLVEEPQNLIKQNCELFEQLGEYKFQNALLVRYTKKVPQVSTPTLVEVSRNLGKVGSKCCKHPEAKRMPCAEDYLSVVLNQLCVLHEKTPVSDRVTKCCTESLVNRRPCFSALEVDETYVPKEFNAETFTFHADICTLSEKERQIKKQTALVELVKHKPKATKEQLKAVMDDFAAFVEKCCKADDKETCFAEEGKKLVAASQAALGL

SMILES	binding to fibronectin in plasma or purified fibronectin [1]	binding to albumin in human plasma [2]	reaction with TTR (labeling of TTR dimer and tetramer) [3]	time for binding to fibronectin to reach equilibrium ([4]; 500 μmol/L homocysteine) [h]	maximum homocysteine bound per mole of dimeric fibronectin ([4]; up to 500 μmol/L homocysteine, 37° C.) [mol]
N[C@@H](CS)C(=O)O [L-cysteine]	did not bind	bound to albumin			
N[C@@H](CCS)C(=O)O [L-homocysteine]	bound via a disulfide linkage	most of the radioactivity in the plasma was associated with albumin	readily reacts with the Cys^10 position of TTR	≤ 5	5
